# Measured values: patent US7288676B2, “Arylphenyl-substituted cyclic ketoenols” (Bayer CropScience AG, priority 1998, dated 2007)
# Tests used:
# Assay type in all cases: in vivo
# [1] = system: larvae of the green rice leaf-hopper (Nephotettix cincticeps); assay: Nephotettix test; conditions: active compound 0.1 %, rice seedlings (Oryza sativa) dipped
# Description: (§1) Nephotettix Test [table] To produce a suitable preparation of active compound, 1 part by weight of active compound is mixed with the stated amounts of solvent and emulsifier, and the concentrate is diluted with water to the desired concentration. Rice seedlings (Oryza sativa) are treated by being dipped into the preparation of active compound of the desired concentration and are populated with larvae of the green rice leaf-hopper (Nephotettix cincticeps) while the leaves are still moist. After the desired period of time, the kill in % is determined. 100% means that all leaf-hoppers have been killed; 0% means that none of the leaf-hoppers have been killed.
# [2] = system: larvae of the mustard beetle (Phaedon cochleariae); assay: Phaedon larvae test; conditions: concentration of active compound 0.1 %, cabbage leaves (Brassica oleracea) dipped
# Description: as §1, with “Phaedon larvae” for “Nephotettix”, “Cabbage leaves (Brassica oleracea)” for “Rice seedlings (Oryza sativa)”, “mustard beetle (Phaedon cochleariae)” for “green rice leaf-hopper (Nephotettix cincticeps)”, “[…]” for “leaf-hoppers”
# [3] = system: peach aphids (Myzus persicae); assay: Myzus test; conditions: concentration of active compound 0.1 %, infested cabbage leaves (Brassica oleracea) dipped
# Description: Myzus Test [table] To produce a suitable preparation of active compound, 1 part by weight of active compound is mixed with the stated amounts of solvent and emulsifier, and the concentrate is diluted with water to the desired concentration. Cabbage leaves (Brassica oleracea) which are heavily infested by peach aphids (Myzus persicae) are treated by being dipped into the preparation of active compound of the desired concentration. After the desired period of time, the kill in % is determined. 100% means that all aphids have been killed; 0% means that none of the aphids have been killed.
smiles,measurement,setting,value
CCOC1CCC2(CC1)NC(=O)C(c1c(C)cc(-c3ccc(Cl)cc3)cc1C)=C2O (centres unmarked) [drawing 173],Kill in % after 6 days,[1],100%
CCOC1CCC2(CC1)NC(=O)C(c1c(C)cc(-c3ccc(Cl)cc3)cc1C)=C2O (centres unmarked) [drawing 175],Kill in % after 7 days,[2],100%
CCOC1CCC2(CC1)NC(=O)C(c1c(C)cc(-c3ccc(Cl)cc3)cc1C)=C2O (centres unmarked) [drawing 171],Kill in % after 6 days,[3],95%
COC1CCC2(CC1)NC(=O)C(c1c(C)cc(-c3ccc(Cl)cc3)cc1Cl)=C2O (centres unmarked) [drawing 174],Kill in % after 7 days,[2],100%
COC1CCC2(CC1)NC(=O)C(c1c(C)cc(-c3ccc(Cl)cc3)cc1Cl)=C2O (centres unmarked) [drawing 172],Kill in % after 6 days,[1],100%
